Series [1] relates to monoclonal antibody CHA255. The experiment in a line: Association constants of metal chelates with monoclonal antibody CHA255 by equilibrium dialysis (method of Eisen), displacement of In(III)-(L)-aminobenzyl EDTA. Format: binding, BALB/c mice. As to conditions: for Kd: dialysis 24h, 37°, pH 7. From the text:
(§1) Table I below sets forth the association constants of the two monoclonal antibodies described in Example II for a number of chelates. In Part A, the relative affinities of the antibodies for aminobenzyl EDTA complexes of In(III) and other ions are shown. In Part B, the binding constants of the antibodies for In(III) complexes with other chelating agents are shown. The metals selected for comparison were trivalent ions similar to In(III) and divalent ions whose EDTA complexes form structures similar to that of an In-EDTA complex. The binding constants for the chelates were determined by the method of Eisen, Meth. Med. Res., 10, 106 (1964) by dialysis of the antibody and metal chelates to near equilibrium (24h) at 37° in 0.05M 2-hydroxyethyl-piperazine-ethanesulfonate, 0.lM NaCl, 0.1% NaN3 and 0.1% bovine serum albumin at pH 7. The concentration of antibody binding sites inside the dialysis bag was 10^-7 M, and the concentration of free In(III)-(L)-aminobenzyl EDTA was in the same range.
(§2) Known amounts of another chelate were added to the solution after equilibrium until roughly half of the bound indium chelate had been displaced at equilibrium.

Series [2] concerns monoclonal antibody CHB235. The experiment in a line: Association constants of metal chelates with monoclonal antibody CHB235 by equilibrium dialysis (method of Eisen), displacement of In(III)-(L)-aminobenzyl EDTA. As to conditions: dialysis 24h, 37°, pH 7. It is filed as binding, BALB/c mice.
Excerpt: as §1, §2

The conditions of series [3]: metal-EDTA chelate (not the L-Benzyl-EDTA chelate); from Sillen and Martell / Martell and Smith; cited from earlier work.
Setting [4] is: Table 1 Part B, indium chelates with different chelators, read-out: K A^CHA255 (antibody binding constant for each indium chelate) (converted).
[5] abbreviates: Table 1 Part B, indium chelates with different chelators, read-out: K A^CHA235 (antibody binding constant for each indium chelate) (converted).

Like-named read-outs stand apart in the source and are kept apart here.

Results on four compounds are retold here after US4722892A, “Monoclonal antibodies against metal chelates” (priority 1984, dated 1988).

As to In(III)-(L)-aminobenzyl EDTA, the Kd is 0.25 nM in series [1] (Table 1 Part A, coefficient of variation in parentheses, read-out: K A^CHA255 (antibody binding constant for metal-L-Benzyl-EDTA chelate) (converted)); 0.25 nM in series [1] (setting [4]); 9.09 nM in series [2] (Table 1 Part A, coefficient of variation on next line, read-out: K A^CHB235 (antibody binding constant for metal-L-Benzyl-EDTA chelate) (converted)); 9.09 nM in series [2] (setting [5]). In series [1] (summary statement, antibody not named), the “affinity (KA)” value is listed as “greater than 10^9 M^-1”. Besides, the “log K S^EDTA(M) (logarithm of the stability constant for each metal-EDTA chelate)” value in series [3] was 25.0.

Take `O=C(O)CN(CCO)CCN(CC(=O)O)CC(=O)O` [HED3A]: the Kd in series [1] (setting [4]) was 23.8 nM; in series [2] (setting [5]) it was 25 nM.

For `O=C(O)CN(CCN(CC(=O)O)CC(=O)O)CC(=O)O` [EDTA], the Kd in series [1] (setting [4]) was 5.88 nM; in series [2] (setting [5]), 7.69 nM.

Take `O=C(O)CN(CC(=O)O)CC(Cc1ccccc1)N(CC(=O)O)CC(=O)O` [D-Benzyl-EDTA]: the Kd in series [1] (setting [4]) was 15.9 nM; in series [2] (setting [5]), 27.8 nM.
